According to paper PMC4942819 (Scientific Reports, 2016):
Converted amounts (≈) assume the structure as drawn. Like-named read-outs stand apart in the source and are kept apart here.

How the values were obtained:
M. tuberculosis H37Rv = assay: MABA checkerboard synergy assay; assay type: cell-based, Mycobacterium tuberculosis; conditions: for MIC: Mycobacterium tuberculosis, H37RV, 336 h, checkerboard, drug alone, read-out: MIC against H37Rv, MIC alone
XDR-TB clinical isolates = assay: microbe, parasite or virus in culture; assay type: cell-based, Mycobacterium tuberculosis; conditions: Mycobacterium tuberculosis
Mycobacterium avium = assay: microdilution plate assay, MIC; assay type: cell-based
Vero cells = assay: cytotoxicity, MTT assay; assay type: cell-based; conditions: Chlorocebus sabaeus, Vero; cytotoxicity; read-out: IC50 Vero
Experimental: The compounds were examined for toxicity (IC50) using MTT assay. Briefly, cells (3 ~ 5 × 10^3 cells/well) were seeded in a 96-well plate. After 24 h incubation, the cells were treated with various concentrations of drugs for 24, 48, 72 h, respectively. Columns one and two in the assay plates contained-media +0.1% DMSO for a negative control ,Then, 20 μl of a 5 mg/mL MTT solution was added to each well, and the plates were incubated for an additional 2~4 h at 37 °C. The medium was subsequently discarded, and DMSO 150 μL was added to dissolve the formazan. Oscillate 15 min, the OD 570 was measured using a Spectra MAX M5 microplate spectrophotometer (Molecular Devices, CA, USA), and the IC50 values were calculated.
Compound MIC was conducted by ShangHai Chempartner Co., Ltd (Shanghai, China) using the microplate Alamar Blue assay (MABA) against Mycobacterium tuberculosis H37Ra (ATCC 25177). Cytotoxicity of tested compounds was assessed on Vero cells.

[1] = tested on: Mycobacterium tuberculosis H37Rv; assay: microplate Alamar blue assay (MABA), MIC; assay type: cell-based; conditions: replicating H37Rv
MDR-TB clinical isolates = assay: microbe, parasite or virus in culture; assay type: cell-based; conditions: Mycobacterium tuberculosis
[2] = tested on: M. tuberculosis Erdman in J774A.1 cells; assay: macrophage assay, intracellular activity; assay type: cell-based, Mycobacterium tuberculosis
Experimental: As described previously, J774A.1 cells were grown in 75-cm2 cell culture flasks in 10% FBS in Dulbecco’s modified Eagle’s medium (DMEM) until confluency. The cells were detached using a cell scraper, and then centrifuged at 200 g for 5 min at room temperature. The cells were incubated at 37 °C under 5% CO2 for 16 h after distributing into 24-well plates containing coverslips. M. tuberculosis Erdman (ATCC 35801) were diluted to a final concentration of 1 × 10^5 to 3 × 10^5 CFU/mL with DMEM after thawing and sonicating from frozen cultures. And 500 ul of the dilution was dispensed to each well of a new 24-well plate. Followed by, J774A.1 cells on coverslips were infected by incubation with M. tuberculosis Erdman at 37 °C for 2 h. Coverslips were then washed with HBSS and transferred to new 24-well plates. The Cultures were treated in triplicate with compounds at 0.02 μM containing DMEM and incubated at 37 °C under 5% CO2 for 16 h. At D 0 (for untreated controls) and after 7 days of incubation, macrophage cells were lysed by addition of 200 μL of 0.25% sodium dodecyl sulfate. The plates were incubated at 37 °C for 10 min, and 200 μL of DMEM was added. The lysate was sampled using a microtube and sonicated for 15 s. Then 1:1, 1:10, 1:100, and 1:1,000 dilutions were plated on 7H11 agar plates and CFU counts determined after 2 to 3 weeks of incubation at 37 °C.

M. tuberculosis Erdman = assay: in vivo acute M.tb Erdman infection mouse model; design: species or system Mycobacterium tuberculosis; conditions: BALB/c mice
[3] = read-out: MIC, XDR-TB strain X15
[4] = read-out: MIC, XDR-TB strain X17
[5] = read-out: MIC, MDR-TB strain M3
[6] = read-out: MIC, MDR-TB strain M4
[7] = read-out: MIC, MDR-TB strain M8
[8] = read-out: MIC, MDR-TB strain M18

SMILES | MIC (M. tuberculosis H37Rv) [µg/mL] | MIC against H37Rv, MIC in combo. (M. tuberculosis H37Rv; in combination with TB1001) [µg/mL] | MIC (XDR-TB clinical isolates; [3]) [µg/mL] | MIC (XDR-TB clinical isolates; [4]) [µg/mL] | MIC (Mycobacterium avium) [µg/mL] | IC50 (Vero cells) [µg/mL] | MIC [1] [µg/mL] | MIC (MDR-TB clinical isolates; [5]) [µg/mL] | MIC (MDR-TB clinical isolates; [6]) [µg/mL] | MIC (MDR-TB clinical isolates; [7]) [µg/mL] | MIC (MDR-TB clinical isolates; [8]) [µg/mL] | Log10 CFU, intracellular Mtb Erdman ([2]; J774A.1 macrophages, 0.02 μM (Fig. 2 legend: 0.02 μg/mL), 7 days) | Fold(log) reduction ([2]; decrease of log10 CFU between D7 and treatment group, J774A.1, 0.02 μM (Fig. 2 legend: 0.02 μg/mL)) [log] | MIC against H37Rv, MIC in combo. (M. tuberculosis H37Rv; in combination with BTZ043) [µg/mL] | decrease of MIC (M. tuberculosis H37Rv; in the presence of SKLB-TB1001) [fold] | reduction of bacterial concentration in lungs compared to vehicle control group (M. tuberculosis Erdman; 15 mg/kg oral) [logs] | Log10 CFU (SD), bacterial burden in mouse lungs (M. tuberculosis Erdman; Day-36, 15 mg/kg oral daily from day 10)
NNC(=O)c1ccncc1 [INH, isoniazid] | 0.03 | 0.01 | 16 (≈ 117 µM) | 1 (≈ 7.29 µM) | 16 (≈ 117 µM) | > 100 | 0.47 (≈ 3.43 µM) | 8 (≈ 58.3 µM) | 1 (≈ 7.29 µM) | 4 (≈ 29.2 µM) | 1 (≈ 7.29 µM) | – | – | – | – | – | –
CO[C@H]1/C=C/O[C@@]2(C)Oc3c(C)c(O)c4c(O)c(c(/C=N/N5CCN(C)CC5)c(O)c4c3C2=O)NC(=O)/C(C)=C\C=C\[C@H](C)[C@H](O)[C@@H](C)[C@@H](O)[C@@H](C)[C@H](OC(C)=O)[C@@H]1C [RMP, rifampicin] | – | 0.001 | 64 (≈ 77.8 µM) | 64 (≈ 77.8 µM) | – | – | – | 64 (≈ 77.8 µM) | 64 (≈ 77.8 µM) | 64 (≈ 77.8 µM) | 64 (≈ 77.8 µM) | 6.44 | 0.41 | 0.007 | 6 | 2.5 | 3.73 (3.19)
CC1COc2c(N3CCN(C)CC3)c(F)cc3c(=O)c(C(=O)O)cn1c23 (stereo not drawn) [OFLX, ofloxacin] | – | – | 8 (≈ 22.1 µM) | 32 (≈ 88.6 µM) | – | – | – | – | – | – | – | – | – | – | – | – | –
COc1c(N2C[C@@H]3CCCN[C@@H]3C2)c(F)cc2c(=O)c(C(=O)O)cn(C3CC3)c12 [MOX, moxifloxacin] | 0.037 | 0.021 | – | – | – | – | – | – | – | – | – | – | – | – | – | – | –
NCC[C@H](O)C(=O)N[C@@H]1C[C@H](N)[C@@H](O[C@H]2O[C@H](CN)[C@@H](O)[C@H](O)[C@H]2O)[C@H](O)[C@H]1O[C@H]1O[C@H](CO)[C@@H](O)[C@H](N)[C@H]1O [AMK, amikacin] | – | – | 64 (≈ 109 µM) | 64 (≈ 109 µM) | – | – | – | – | – | – | – | – | – | – | – | – | –
[H]/N=C(/N)N[C@H]1[C@H](O)[C@@H](O)[C@H](O[C@@H]2O[C@@H](C)[C@](O)(C=O)[C@H]2O[C@@H]2O[C@@H](CO)[C@H](O)[C@@H](O)[C@@H]2NC)[C@@H](N/C(N)=N\[H])[C@@H]1O [SM, streptomycin] | – | – | 8 (≈ 13.8 µM) | 64 (≈ 110 µM) | – | – | – | 64 (≈ 110 µM) | 8 (≈ 13.8 µM) | 64 (≈ 110 µM) | 64 (≈ 110 µM) | – | – | – | – | – | –
